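Test compounds were applied to cells in 96-well plates for 48 hours at 5 doses. At the TGI there is no net growth.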
Assays:
Assay in all cases: growth of human tumour cells (NCI), 48 h
[1] = system: 786-0 renal
[2] = system: A498 renal
[3] = system: A549 NSCLC
[4] = system: ACHN renal
[5] = system: CAKI-1 renal
[6] = system: CCRF-CEM leukemia
[7] = system: COLO 205 colon
[8] = system: DLD-1 colon
[9] = system: DMS 114 small cell lung
[10] = system: DMS 273 small cell lung
[11] = system: EKVX NSCLC
[12] = system: HCC-2998 colon
[13] = system: HCT-116 colon
[14] = system: HCT-15 colon
[15] = system: HL-60(TB) leukemia
[16] = system: HOP-62 NSCLC
[17] = system: HOP-92 NSCLC
[18] = system: HT29 colon
[19] = system: IGROV1 ovarian
[20] = system: K-562 leukemia
[21] = system: KM12 colon
[22] = system: KM20L2 colon
[23] = system: LOX IMVI melanoma
[24] = system: LXFL 529 NSCLC
[25] = system: M14 melanoma
[26] = system: M19-MEL melanoma
[27] = system: MALME-3M melanoma
[28] = system: MOLT-4 leukemia
[29] = system: NCI-H226 lung
[30] = system: NCI-H23 lung
[31] = system: NCI-H460 lung
[32] = system: NCI-H522 lung
[33] = system: OVCAR-3 ovarian
[34] = system: OVCAR-4 ovarian
[35] = system: OVCAR-5 ovarian
[36] = system: OVCAR-8 ovarian
[37] = system: RPMI-8226 leukemia
[38] = system: RXF 393 renal
[39] = system: SF-268 CNS
[40] = system: SF-295 CNS
[41] = system: SF-539 CNS
[42] = system: SK-MEL-2 melanoma
[43] = system: SK-MEL-28 melanoma
[44] = system: SK-MEL-5 melanoma
[45] = system: SK-OV-3 ovarian
[46] = system: SN12C renal
[47] = system: SNB-19 CNS
[48] = system: SNB-75 CNS
[49] = system: SNB-78 CNS
[50] = system: SR leukemia
[51] = system: SW-620 colon
[52] = system: TK-10 renal
[53] = system: U251 CNS
[54] = system: UACC-257 melanoma
[55] = system: UACC-62 melanoma
[56] = system: UO-31 renal
[57] = system: XF 498 CNS
[58] = system: HOP-18 NSCLC

Cc1cc(C)[n+](CCOc2ccc(/C(=C(/Cl)c3ccccc3)c3ccccc3)cc2)c(C)c1
TGI [1]: 8.35 µM
TGI [2]: 30.2 µM
TGI [3]: 17.4 µM
TGI [4]: 31.4 µM
TGI [5]: 20.3 µM
TGI [6]: 3.28 µM
TGI [7]: 0.961 µM
TGI [8]: 15.8 µM
TGI [9]: 5.43 µM
TGI [10]: 1.48 µM
TGI [11]: 13.2 µM
TGI [12]: 2.46 µM
TGI [13]: 7.98 µM
TGI [14]: 27.5 µM
TGI [15]: 3.31 µM
TGI [16]: 9.06 µM
TGI [17]: 2.7 µM
TGI [18]: 3.48 µM
TGI [19]: 2.33 µM
TGI [20]: 8.11 µM
TGI [21]: 2.01 µM
TGI [22]: 12.7 µM
TGI [23]: 2.14 µM
TGI [24]: 1.82 µM
TGI [25]: 6.88 µM
TGI [26]: 1.84 µM
TGI [27]: 3.64 µM
TGI [28]: 11.3 µM
TGI [29]: 6.37 µM
TGI [30]: 6.94 µM
TGI [31]: 8.18 µM
TGI [32]: 2.62 µM
TGI [33]: 4.07 µM
TGI [34]: 13.5 µM
TGI [35]: 12.4 µM
TGI [36]: 8.41 µM
TGI [37]: 3.59 µM
TGI [38]: 7.77 µM
TGI [39]: 7.55 µM
TGI [40]: 11.2 µM
TGI [41]: 9.82 µM
TGI [42]: 2.18 µM
TGI [43]: 3.58 µM
TGI [44]: 1.64 µM
TGI [45]: 6.54 µM
TGI [46]: 6.03 µM
TGI [47]: 5.21 µM
TGI [48]: 4.3 µM
TGI [49]: 19.5 µM
TGI [50]: 4.32 µM
TGI [51]: 11.1 µM
TGI [52]: 13.1 µM
TGI [53]: 4.14 µM
TGI [54]: 3.28 µM
TGI [55]: 4.92 µM
TGI [56]: 35.7 µM
TGI [57]: 1.29 µM

Cc1cc(NS(=O)(=O)c2ccc(Nc3c4ccccc4nc4c(C(=O)NCCN(C)C)cccc34)cc2)no1
TGI [1]: 19.7 µM
TGI [3]: 71 µM
TGI [4]: 19 µM
TGI [6]: 11.1 µM
TGI [7]: > 100 µM
TGI [8]: > 100 µM
TGI [9]: 14 µM
TGI [10]: > 100 µM
TGI [11]: 30.1 µM
TGI [12]: 27 µM
TGI [13]: > 100 µM
TGI [14]: > 100 µM
TGI [15]: 0.472 µM
TGI [16]: 6.57 µM
TGI [18]: > 100 µM
TGI [19]: 22.1 µM
TGI [20]: > 100 µM
TGI [21]: > 100 µM
TGI [22]: > 100 µM
TGI [23]: 31.3 µM
TGI [24]: > 100 µM
TGI [25]: > 100 µM
TGI [26]: > 100 µM
TGI [29]: 2.92 µM
TGI [30]: > 100 µM
TGI [31]: 26.6 µM
TGI [32]: 4.56 µM
TGI [34]: 57.7 µM
TGI [35]: > 100 µM
TGI [36]: > 100 µM
TGI [38]: 22.8 µM
TGI [39]: 16.4 µM
TGI [40]: 47.5 µM
TGI [41]: 15.2 µM
TGI [43]: 48.8 µM
TGI [44]: 11.8 µM
TGI [46]: > 100 µM
TGI [47]: 13 µM
TGI [48]: 21 µM
TGI [49]: 80.4 µM
TGI [50]: > 100 µM
TGI [51]: > 100 µM
TGI [52]: > 100 µM
TGI [53]: > 100 µM
TGI [55]: 14.4 µM
TGI [57]: > 100 µM

O=S1OC2(c3ccccc3-c3ccccc32)c2ccccc21 (stereo not given)
TGI [1]: > 100 µM
TGI [2]: > 100 µM
TGI [3]: > 100 µM
TGI [4]: > 100 µM
TGI [6]: > 100 µM
TGI [7]: > 100 µM
TGI [8]: > 100 µM
TGI [9]: > 100 µM
TGI [11]: > 100 µM
TGI [12]: > 100 µM
TGI [13]: > 100 µM
TGI [14]: > 100 µM
TGI [15]: > 100 µM
TGI [58]: > 100 µM
TGI [16]: > 100 µM
TGI [18]: > 100 µM
TGI [19]: > 100 µM
TGI [20]: > 100 µM
TGI [21]: > 100 µM
TGI [22]: > 100 µM
TGI [23]: > 100 µM
TGI [24]: > 100 µM
TGI [25]: > 100 µM
TGI [26]: > 100 µM
TGI [27]: > 100 µM
TGI [28]: > 100 µM
TGI [29]: > 100 µM
TGI [30]: > 100 µM
TGI [31]: > 100 µM
TGI [32]: > 100 µM
TGI [33]: > 100 µM
TGI [34]: > 100 µM
TGI [35]: > 100 µM
TGI [36]: > 100 µM
TGI [37]: > 100 µM
TGI [38]: > 100 µM
TGI [40]: > 100 µM
TGI [41]: > 100 µM
TGI [43]: > 100 µM
TGI [44]: > 100 µM
TGI [45]: > 100 µM
TGI [46]: > 100 µM
TGI [47]: > 100 µM
TGI [48]: > 100 µM
TGI [50]: > 100 µM
TGI [51]: > 100 µM
TGI [52]: > 100 µM
TGI [53]: > 100 µM
TGI [54]: > 100 µM
TGI [55]: > 100 µM
TGI [56]: > 100 µM
TGI [57]: > 100 µM

CC(=O)Nc1cc2c(s1)CCC1CC(=O)NN=C21 (stereo not given)
TGI [1]: > 100 µM
TGI [3]: > 100 µM
TGI [4]: > 100 µM
TGI [6]: > 100 µM
TGI [7]: > 100 µM
TGI [9]: > 100 µM
TGI [10]: > 100 µM
TGI [11]: > 100 µM
TGI [13]: > 100 µM
TGI [14]: > 100 µM
TGI [15]: > 100 µM
TGI [16]: > 100 µM
TGI [18]: > 100 µM
TGI [19]: > 100 µM
TGI [20]: > 100 µM
TGI [21]: > 100 µM
TGI [22]: > 100 µM
TGI [23]: > 100 µM
TGI [24]: > 100 µM
TGI [25]: > 100 µM
TGI [26]: > 100 µM
TGI [27]: > 100 µM
TGI [28]: > 100 µM
TGI [29]: > 100 µM
TGI [30]: > 100 µM
TGI [31]: > 100 µM
TGI [32]: > 100 µM
TGI [33]: > 100 µM
TGI [34]: > 100 µM
TGI [35]: > 100 µM
TGI [36]: > 100 µM
TGI [37]: > 100 µM
TGI [38]: > 100 µM
TGI [39]: > 100 µM
TGI [40]: > 100 µM
TGI [41]: > 100 µM
TGI [42]: > 100 µM
TGI [43]: > 100 µM
TGI [44]: > 100 µM
TGI [46]: > 100 µM
TGI [47]: > 100 µM
TGI [48]: > 100 µM
TGI [49]: > 100 µM
TGI [50]: > 100 µM
TGI [51]: > 100 µM
TGI [52]: > 100 µM
TGI [53]: > 100 µM
TGI [55]: > 100 µM
TGI [56]: > 100 µM
TGI [57]: > 100 µM
